Where two headings read alike, the source gives them in different places.
How the values were obtained:
HEK293 cells [1] = test: Cell viability (MTS) assay in HEK293 cells, renal adenocarcinoma study; assay type: cell-based, human; conditions: HEK293 normal embryonic kidney cells
A498 cells = test: Cell viability (MTS) assay in A498 cells, renal adenocarcinoma study; assay type: cell-based; conditions: A498 renal carcinoma cells, OD490 cell viability
Excerpt: (§1) Cell culture: A498 and ACHN cells were purchased from Tongbai Bio (Shanghai, China).

HL-7002 cells [2] = conditions: leukemia study; for IC50: HL-7002 human fetal hepatic cells
Protocol: After comparison of OD490 values of the tested agents and the control agents, an index of relative repression rate of cell proliferation was obtained. The IC50 value was calculated by using the SPSS16.0 software.
The cells were cultured in RPMI+5% Fetal Bovine Serum (FBS).
Cells treated with the solvents were used as negative controls, and carboplatin, etiposide and MTX were used as the positive controls. The cells were monitored daily, and the cell viability was evaluated with the Promega CellTiter 96 AQueous One Solution Cell Proliferation Assay (Promega, Madison, Wis., USA) according to the manufacture manuals. The cell viability was monitored at OD490 reading in a bio-spectrometer (Perkin Elmer, Walthan, Mass., USA).
Data analysis: The OD490 reading data were collected hourly from 1 h to 4 h after the addition of lysis buffer. The index of cell growth repression ratio was obtained by comparing the OD490 data of treatment to the negative control. The drug response rate IC50 was calculated with the SPSS 16.0 software.

HEK293 cells [3] = test: Cell viability (MTS) assay in HEK293 cells, leukemia study; conditions: for toxicity: HEK293 cells, leukemia study, result in words; for IC50: Homo sapiens, HEK293
ACHN cells = test: Cell viability (MTS) assay in ACHN cells, renal adenocarcinoma study; assay type: cell-based; conditions: ACHN renal carcinoma cells, OD490 cell viability
Excerpt: as §1

HL-60 cells = test: Cell viability (MTS) assay in HL-60 cells, leukemia study; assay type: cell-based; conditions: HL-60 human promyelocytic leukemia cells, OD490 cell viability
HL-7002 cells [4] = test: Cell viability (MTS) assay in HL-7002 cells, renal adenocarcinoma study
melanoma = test: Case of a melanoma patient with multiple metastases in the brain and adrenal gland treated with DCP solution; assay type: in vivo, human
Excerpt: The following case summarizes DCP's pharmaceutical use on a melanoma patient with multiple metastases in the brain and adrenal grand. A metastatic tumor mass firstly was detected at the right frontal and parietal lobe of a patient's brain by MRI, and was removed by surgery in one month later. However, a new tumor mass with edema around it was detected at the left of parietal lobe. The tumor grew bigger, and the edema around the tumor became worse about two months after the new tumor was detected. The patient was treated with DCP solution (150 mg of DCP in 250 mL aqueous solution one time for every three days) for about three weeks.
The left lateral ventricle was compressed. The sign of removed tumors could be distinguished at the right frontal and parietal lobe, and the postoperative repair was found in the right frontal parietal bone. The midline structure shifted to the right side.
After treatment with DCP solution for about three weeks, the patient was examined (FIG. 10). […] The tumors at the right frontal and parietal lobe were removed, and the midline structure was normal.

K562 cells = test: Cell viability (MTS) assay in K562 cells, leukemia study; assay type: cell-based, human; conditions: for IC50: K562 human myelogenous leukemia cells, OD490 cell viability; for toxicity: K562 cells, result in words
[5] = HL-7002 normal hepatocytes, renal adenocarcinoma study
[6] = after DCP solution for about three weeks
[7] = melanoma brain metastasis, 150 mg DCP in 250 mL every three days for about three weeks

Question: What does the source list for dicycloplatin [DCP]?
Answer: IC50 (HEK293 cells [1]): 463 µM; IC50 (A498 cells): 20.9 µM; IC50 (HL-7002 cells [2]): 503 µM; toxicity (HEK293 cells [3]): no toxicity; IC50 (ACHN cells): 15.4 µM; IC50 (HL-60 cells): 18.6 µM; cellular toxicity lower than 5-FU (HL-7002 cells [4]; HL-7002 and HEK293 normal cells, compared to 5-FU): 4 fold; IC50 (HL-7002 cells [4]; [5]): 1470 µM; edema around the tumor, post-chemo CT (melanoma; [6]): significantly relieved; tumor mass at the left of parietal lobe, post-chemo CT vs pre-chemo CT (melanoma; [6]): shrunk; edema around the tumor by MRI (melanoma; [7]): relieved; tumor mass by MRI (melanoma; [7]): shrunk; IC50 (K562 cells): 812 µM

Question: `CN(Cc1cnc2nc(N)nc(N)c2n1)c1ccc(C(=O)N[C@@H](CCC(=O)O)C(=O)O)cc1` [MTX, Methotrexate] was tested. Which toxicity (HL-7002 cells [2]; HL-7002 cells, result in words) did it give?
Answer: little toxicity

Question: What about the IC50 (HEK293 cells [3]) of the same compound?
Answer: 17.6 µM

Question: What about the IC50 (HL-60 cells) of the same compound?
Answer: 15.3 µM

Question: What about the toxicity (K562 cells) of the same compound?
Answer: did not show any toxicity

Question: What does the source list for `COc1cc([C@@H]2c3cc4c(cc3[C@@H](O[C@@H]3O[C@@H]5CO[C@@H](C)O[C@H]5[C@H](O)[C@H]3O)[C@H]3COC(=O)[C@H]23)OCO4)cc(OC)c1O` [etoposide]?
Answer: IC50 (HL-7002 cells [2]): 512 µM; IC50 (HEK293 cells [3]): 359 µM; IC50 (HL-60 cells): 15.3 µM; toxicity (K562 cells): did not show any toxicity

Question: With `O=c1[nH]cc(F)c(=O)[nH]1` [5-FU, fluorouracil] as the compound, how does the IC50 (HEK293 cells [1]; Homo sapiens) read?
Answer: 45 µM

Question: And the IC50 (A498 cells; Homo sapiens)?
Answer: 18.2 µM

Question: What about the IC50 (ACHN cells; Homo sapiens) of the same compound?
Answer: 6.45 µM

Question: And the IC50 (HL-7002 cells [4]; Homo sapiens, Hepatocyte)?
Answer: 356 µM

Question: What does the source list for `N.N.O=C([O-])C1(C(=O)[O-])CCC1.[Pt+2]` [carboplatin]?
Answer: IC50 (HEK293 cells [1]): 410 µM; IC50 (A498 cells): 18.4 µM; IC50 (HL-7002 cells [2]): 503 µM; toxicity (HEK293 cells [3]): no toxicity; IC50 (ACHN cells): 11 µM; IC50 (HL-60 cells): 17.3 µM; IC50 (HL-7002 cells [4]; [5]): 1410 µM; IC50 (K562 cells): 1210 µM
